Source: patent US7015022B2, “Mammalian catalase-dependent oxidation processes and methods for stimulating oxidative activities” (University of Medicine & Dentistry of New Jersey, priority 2002, dated 2006)
Entries after “also recorded” stand apart in the source; their conditions may differ.

Columns and labels:
[1] = target: T1, mammalian catalase (Bos taurus, UniProt P00432); experiment: Competition with AMPLEX-RED: inhibition of the AMPLEX-RED catalase oxidase reaction; format: biochemical, bovine; conditions: for kind of inhibition of the AMPLEX-RED oxidase reaction (kinetic analysis): competitive or noncompetitive; for inhibition of the AMPLEX-RED catalase oxidase activity: catalase 1 mg/ml in reaction buffer, no concentration given; for inhibition of the oxidation of AMPLEX-RED to resorufin by catalase: concentrations ranging from 0.005 mM to 0.1 mm or greater; for Ki: calculated from kinetic analysis, catalase 1 mg/ml, read-out: Ki for inhibition of the AMPLEX-RED catalase oxidation reaction
T1 construct: purified catalases obtained from a variety of sources including enzyme from mouse and bovine liver; purchased Sigma Chemical Co., St. Louis, Mo; host or cells: liver tissue (mouse and bovine named)
T1 sequence (P00432 2-527 limits assumed): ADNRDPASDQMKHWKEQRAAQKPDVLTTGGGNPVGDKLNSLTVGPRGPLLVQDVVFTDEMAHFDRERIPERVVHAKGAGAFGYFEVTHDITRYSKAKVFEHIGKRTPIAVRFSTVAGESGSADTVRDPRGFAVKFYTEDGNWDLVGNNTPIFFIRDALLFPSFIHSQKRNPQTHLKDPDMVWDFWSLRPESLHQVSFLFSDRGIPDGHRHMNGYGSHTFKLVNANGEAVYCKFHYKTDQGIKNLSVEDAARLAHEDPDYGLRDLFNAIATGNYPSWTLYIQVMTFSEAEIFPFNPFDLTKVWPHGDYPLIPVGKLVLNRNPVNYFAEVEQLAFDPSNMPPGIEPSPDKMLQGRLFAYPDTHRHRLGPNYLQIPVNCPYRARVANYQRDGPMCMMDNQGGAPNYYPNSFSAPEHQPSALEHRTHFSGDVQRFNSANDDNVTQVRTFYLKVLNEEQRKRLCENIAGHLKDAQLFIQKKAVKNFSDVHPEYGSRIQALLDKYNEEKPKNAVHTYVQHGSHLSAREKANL
Protocol: Catalases were purchased from Sigma Chemical Co., St. Louis, Mo. Reactions were carried out in buffer consisting of 50 mM phosphate buffer, pH 7.4 and 1.0 mg/ml of the catalase at room temperature (22° C.) in a reaction volume of 0.1 ml. […] Standard reaction mixtures contain 20 nmoles of the substrate. Detection of the fluorescent product resorufin was measured using an HTS 7000 Plus Bio Assay Reader (Perkin Elmer, Beaconsfield, Buckinghamsire, UK) using a 540 nm excitation filter and a 595 nm emission filter.

[2] = target: T1, mammalian catalase; experiment: Oxidation of substrates by catalase oxidase activity (absorbance or fluorescence); format: biochemical, bovine; conditions: in the absence of hydrogen peroxide
Protocol: The oxidation of multiple substrates depicted in Table 1 with time was measured using an HTS 7000 Plus Bio Assay Reader using standard catalase reaction mixes (0.5 mg/ml catalase in 50 mM phosphate buffer, pH 7.4). Pyrogallol oxidation (1 mM) was measured by the increase in absorbance at 430 nm. Oxidation of ABTS (1 mM) was measured as the […] in absorbance at 430 nm. Oxidation of catechol (1 mM) was measured as the increase in absorbance at 420 nm. Oxidation of DCFH (5 μM) by catalase was measured as the increase in fluorescence over time with a 485 nm excitation filter and a 520 nm emission filter.

[3] = target: T2, catalase (Bos taurus, UniProt P00432); experiment: Accelerating catalase oxidation of DCFH-DA with UV light; format: biochemical; conditions: DCFH-DA 5 μM, catalase 1 mg/ml
T2 sequence (P00432 2-527 limits assumed): T1 sequence (P00432 2-527 limits assumed)
Protocol: The present invention also relates to methods for accelerating the oxidation of substrates by catalase by exposure to ultraviolet light. For purposes of the present invention, by “accelerate” or “accelerating” it is meant that the rate at which catalase oxidizes a substrate is increased when exposed to ultraviolet light as compared the rate of oxidation of the substrate by catalase in the absence of ultraviolet light. In this method, a substrate is added to mammalian catalase and the mixture is then treated with low doses of ultraviolet light to accelerate oxidation of the substrate. In a preferred embodiment of this method, the low dose of ultraviolet radiation ranges between 2.5 and 25 mJ/cm^2 at a wavelength of UVB light that is between 290 and 320 nm. […] For example, the substrate DCFH-DA was added to a reaction mixture containing catalase in sodium phosphate buffer. The samples were then exposed to increasing doses of ultraviolet light (UVB, 290–320 nm).
Samples were then exposed to increasing doses of ultraviolet light (UVB, 290–320 nm) emitted from a bank of two FS20 UVB light bulbs (Sylvania).

Compound | kind of inhibition of the AMPLEX-RED oxidase reaction (kinetic analysis) [1] | inhibition of the oxidation of AMPLEX-RED to resorufin by catalase [1] | further results
5-amino-2,3-dihydro-1,4-phthalazine-dione (luminol) | competitive inhibitor |  | 
O=C(OC1Cc2c(O)cc(O)cc2OC1c1cc(O)c(O)c(O)c1)c1cc(O)c(O)c(O)c1 (single isomer, unassigned; (-)) [EGCG, (−)-epigallocatechin-3-gallate] |  |  | substrate for the catalase oxidase reaction [2]: substrate
Nc1nc[nH]n1 [3-amino-1,2,4-triazole] |  |  | inhibition of the AMPLEX-RED catalase oxidase activity [1]: inhibits
Cc1c(N(C)C)c(=O)n(-c2ccccc2)n1C [4-dimethylaminoantipyrine] | non-competitive inhibitors | inhibition | kind of inhibition of the AMPLEX-RED oxidase reaction (kinetic analysis) ([1]; listed as aminopyrene): noncompetitive inhibitor
CCn1/c(=N\N=c2\sc3cc(S(=O)(=O)O)ccc3n2CC)sc2cc(S(=O)(=O)O)ccc21.N.N [ABTS, 2,2′-azino-bis[3-ethylbenzthiazoline-6-sulfonic acid]] | competitive inhibitors | inhibition | 
Nc1ccc(-c2ccc(N)c(N)c2)cc1N [DAB, 3,3′-diaminobenzidine] | competitive inhibitors | inhibition | inhibition of the AMPLEX-RED catalase oxidase activity [1]: inhibitors
CC(=O)Oc1cc2c(cc1Cl)C(c1ccccc1C(=O)O)c1cc(Cl)c(OC(C)=O)cc1O2 [DCFH-DA, 2′,7′-dichlorodihydrofluoresceindiacetate] | competitive inhibitors | inhibition | Ki [1]: 31.6 µM; oxidation of DCFH-DA by catalase (increase in fluorescence) ([3]; absence of UVB light): Oxidation of DCFH-DA is observed; also recorded: Relatively low levels of oxidation; oxidation of DCFH-DA by catalase (increase in fluorescence) ([3]; with UVB light 290–320 nm, increasing doses): marked enhancement
Oc1ccccc1O [DHB, 1,2-dihydroxybenzene(catechol)] | competitive inhibitors | inhibition | 
COc1cc(-c2ccc(N)c(OC)c2)ccc1N [DMB, 3,3′-dimethoxybenzidine] | competitive inhibitors | inhibition | 
COc1cc(/C=C/C(=O)O)ccc1O [HMCA, 4-hydroxy-3-methoxycinnamicacid (ferulic acid)] | competitive inhibitors | inhibition | substrate for the catalase oxidase reaction [2]: substrate
Oc1cccc(O)c1O [pyrogallol, 1,2,3-trihydroxybenzene(pyrogallol)] | competitive inhibitors | inhibition | Ki [1]: 1680 µM
